PubChem BioAssay (NCI)
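These data come from cells grown in 96-well plates and exposed to compound for 48 hours at five concentrations. Abbreviation: GI50, concentration required for 50% inhibition of growth. Definition used: TGI = concentration required for complete inhibition of growth.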

What was measured:
Experiment in all cases: NCI anticancer screen, dose series, 48 h
[1] = tested on: COLO 205 colon
[2] = tested on: SF-295 CNS
[3] = tested on: OVCAR-8 ovarian
[4] = tested on: A498 renal
[5] = tested on: MOLT-4 leukemia
[6] = tested on: MCF7 breast
[7] = tested on: M14 melanoma
[8] = tested on: BT-549 breast

Row | SMILES | GI50 [1] [µM] | TGI [1] [µM] | GI50 [2] [µM] | GI50 [3] [µM] | TGI [3] [µM] | GI50 [4] [µM] | TGI [4] [µM] | GI50 [5] [µM] | TGI [5] [µM] | GI50 [6] [µM] | TGI [6] [µM] | GI50 [7] [µM] | TGI [7] [µM] | GI50 [8] [µM] | TGI [8] [µM] | TGI [2] [µM]
1 | COc1ccc2c(c1)[nH]c(=O)c1c3cc(C)c(C)cc3cn21 | < 0.0134 | 0.0248 | < 0.01 | < 0.0179 | 1.48 | < 0.01 | < 0.0295 | < 0.0176 | 0.281 | 0.0927 | 1.16 | < 0.01 | 1.2 | 0.024 | 0.366 | –
2 | CCC[CH2][Sn-]([CH2]CCC)([CH2]CCC)[O]c1cc(Cl)c(Cl)cc1Cl | 0.191 | 0.4 | 0.263 | 0.221 | 0.557 | 0.22 | 0.609 | 0.167 | 0.545 | 0.237 | 0.887 | – | – | – | – | 0.732
3 | COc1ccc2cc(C(=O)/C=C/c3cc(OC)c(OC)c(OC)c3)ccc2c1 | 13.7 | > 50 | 13 | 2.01 | > 50 | – | – | 2.91 | > 50 | – | – | 6.52 | 16.1 | 5.7 | 19.5 | > 50
4 | O=C(CCCCCCSc1nc(-c2ccccc2)cc(-c2ccc(Cl)cc2)n1)NO | 2.38 | 5.76 | 2.45 | 1.93 | 10.2 | 1.4 | 4.09 | 0.557 | 4.26 | 1.95 | 13.3 | 1.95 | 6.53 | 3.67 | 17.5 | 6.7
5 | COc1cc2c(cc1OC)C(=O)/C(=C/c1cccc(OCC(=O)c3ccccc3)c1)C2 | 28 | > 100 | 5.06 | 5.04 | > 100 | 21.7 | > 100 | 2.58 | 14 | 5.83 | > 100 | 34.2 | > 100 | 24.9 | > 100 | 40.8
6 | CNC(=O)c1cc(OC2CCC(NC(=O)Nc3ccc(Cl)c(C(F)(F)F)c3)CC2)ccn1 (configuration not stated) | 8.81 | 22.3 | 4.95 | 7.89 | 39.6 | 8.14 | 22.1 | 4 | 21.5 | 3.48 | 18.1 | 5.47 | 20.6 | 7.8 | 23.6 | 26.6
7 | O=c1oc2cc(OS(=O)(=O)c3ccc(F)cc3)ccc2c2c1CCCCC2 | 2.17 | > 100 | > 100 | > 100 | > 100 | > 100 | > 100 | > 100 | > 100 | – | – | > 100 | > 100 | – | – | > 100
8 | Cc1c2c(nn1-c1ccc(S(=O)(=O)NC(=S)Nc3ccccc3)cc1)-c1ccccc1CC2 | > 50 | > 50 | > 50 | > 50 | > 50 | – | – | > 50 | > 50 | 11.5 | 34.3 | > 50 | > 50 | > 50 | > 50 | > 50
9 | N=C1C(c2nc(-c3ccc(Br)cc3)cs2)=C(O)CN1Cc1cccnc1 | 11.9 | 38.4 | 16.6 | 28.8 | > 100 | 1.9 | 5.23 | 4.39 | 42.7 | 9.76 | > 100 | – | – | 42.6 | > 100 | 81.3
10 | COc1ccc(-c2nc3sc(C)cn3c2/C=C/C(=O)c2cc(OC)c(OC)c(OC)c2)cc1 | 4.7 | > 100 | 4.42 | 3.23 | 8.57 | – | – | – | – | 3.13 | > 100 | 3.97 | > 100 | 4.13 | > 100 | > 100
11 | COc1nc(N(C)O)nc(N(C)O)n1 | 1.24 | > 100 | 2.2 | 2.48 | > 100 | 7.19 | 80.5 | 0.885 | > 100 | 2.07 | > 100 | – | – | 3.16 | > 100 | 9.69
12 | C=C1C(=O)O[C@H]2[C@H]1CC/C(COC(=O)c1cc3cc(F)ccc3[nH]1)=C\CC[C@@]1(C)O[C@@H]21 | 1.64 | 3.37 | 7.1 | 2.17 | 6.67 | 3.35 | 8.96 | 2.26 | 9.23 | 1.02 | 3.75 | 1.89 | 4.11 | – | – | 21.6
13 | COc1ccc2c(c1)/C(=C\c1c(C)nc3sc(C)cn13)C(=O)N2C | 3.42 | 49.8 | 2.25 | 6.14 | > 100 | – | – | 3.76 | > 100 | 3.29 | 35.4 | 4.99 | 61.1 | 6.01 | 49.7 | 6.88
14 | C=C1C(=O)O[C@H]2[C@H]1CC/C(Cn1cc(CNC(=O)Cc3cn(C(=O)c4ccc(Cl)cc4)c4ccc(OC)cc34)nn1)=C\CC[C@@]1(C)O[C@@H]21 | 2.04 | 4.22 | 5.78 | 2.62 | 8.3 | 2.51 | 8.24 | 2 | 6.16 | – | – | 1.65 | 3.28 | 1.61 | 3.41 | 25.7
15 | COc1ccc(Cl)cc1Nc1nc(C(F)(F)F)ccc1C(=O)N/N=C/c1c(Cl)cccc1Cl | – | – | 3.34 | – | – | 12.3 | > 100 | 2.36 | 10.7 | – | – | – | – | 1.2 | 6.84 | 72.6
16 | CN(C)c1cccc2c(S(=O)(=O)N[C@H]3CC[C@H]4[C@@H]5CCc6cc(O)ccc6[C@H]5CC[C@]34C)cccc12 | – | – | 1.02 | 3.3 | 15.9 | 1.75 | 4 | 3.14 | > 100 | 2.59 | > 100 | 3.7 | 18.3 | 2.55 | 6.5 | 2.7
